Reference: PubChem BioAssay (NCI)
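Method: 48-hour compound exposure of cells in 96-well plates, five concentrations, linear interpolation of endpoints. TGI: concentration producing complete growth inhibition.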

Columns and labels:
Experiment in all cases: inhibition of tumour cell growth, NCI panel, 48 h
[1] = tested on: TK-10 renal
[2] = tested on: HCT-116 colon
[3] = tested on: OVCAR-5 ovarian
[4] = tested on: HOP-92 NSCLC
[5] = tested on: M19-MEL melanoma
[6] = tested on: HT29 colon
[7] = tested on: SK-MEL-5 melanoma
[8] = tested on: CCRF-CEM leukemia
[9] = tested on: SK-OV-3 ovarian
[10] = tested on: SNB-19 CNS
[11] = tested on: NCI-H23 lung
[12] = tested on: LXFL 529 NSCLC
[13] = tested on: NCI-H522 lung
[14] = tested on: A498 renal
[15] = tested on: K-562 leukemia
[16] = tested on: SK-MEL-2 melanoma
[17] = tested on: OVCAR-3 ovarian
[18] = tested on: RXF 393 renal
[19] = tested on: OVCAR-4 ovarian
[20] = tested on: LOX IMVI melanoma
[21] = tested on: DLD-1 colon
[22] = tested on: EKVX NSCLC
[23] = tested on: MOLT-4 leukemia
[24] = tested on: UACC-257 melanoma
[25] = tested on: ACHN renal
[26] = tested on: SF-295 CNS
[27] = tested on: SR leukemia
[28] = tested on: SF-268 CNS
[29] = tested on: UO-31 renal
[30] = tested on: SW-620 colon
[31] = tested on: OVCAR-8 ovarian
[32] = tested on: HOP-62 NSCLC
[33] = tested on: UACC-62 melanoma
[34] = tested on: SK-MEL-28 melanoma
[35] = tested on: KM12 colon
[36] = tested on: A549 NSCLC
[37] = tested on: NCI-H460 lung
[38] = tested on: KM20L2 colon
[39] = tested on: MALME-3M melanoma
[40] = tested on: SF-539 CNS
[41] = tested on: 786-0 renal
[42] = tested on: DMS 273 small cell lung
[43] = tested on: XF 498 CNS
[44] = tested on: SNB-75 CNS
[45] = tested on: IGROV1 ovarian
[46] = tested on: M14 melanoma
[47] = tested on: HCT-15 colon
[48] = tested on: HL-60(TB) leukemia
[49] = tested on: COLO 205 colon
[50] = tested on: CAKI-1 renal
[51] = tested on: U251 CNS
[52] = tested on: DMS 114 small cell lung
[53] = tested on: SN12C renal
[54] = tested on: HOP-18 NSCLC
[55] = tested on: RXF-631 renal
[56] = tested on: NCI-H226 lung
[57] = tested on: RPMI-8226 leukemia
[58] = tested on: SNB-78 CNS
[59] = tested on: HCC-2998 colon

## CC(=O)OCc1cc(OC(C)=O)cnc1COC(C)=O
[1]
  TGI: > 100 µM
[2]
  TGI: > 100 µM
[3]
  TGI: > 100 µM
[4]
  TGI: > 100 µM
[5]
  TGI: > 100 µM
[6]
  TGI: > 100 µM
[7]
  TGI: > 100 µM
[8]
  TGI: > 100 µM
[9]
  TGI: > 100 µM
[10]
  TGI: > 100 µM
[11]
  TGI: > 100 µM
[12]
  TGI: > 100 µM
[13]
  TGI: > 100 µM
[14]
  TGI: > 100 µM
[15]
  TGI: > 100 µM
[16]
  TGI: > 100 µM
[17]
  TGI: > 100 µM
[18]
  TGI: > 100 µM
[19]
  TGI: > 100 µM
[20]
  TGI: > 100 µM
[21]
  TGI: > 100 µM
[22]
  TGI: > 100 µM
[23]
  TGI: > 100 µM
[24]
  TGI: > 100 µM
[25]
  TGI: > 100 µM
[26]
  TGI: > 100 µM
[27]
  TGI: > 100 µM
[28]
  TGI: > 100 µM
[29]
  TGI: > 100 µM
[30]
  TGI: > 100 µM
[31]
  TGI: > 100 µM
[32]
  TGI: > 100 µM
[33]
  TGI: > 100 µM
[34]
  TGI: > 100 µM
[35]
  TGI: > 100 µM
[36]
  TGI: > 100 µM
[37]
  TGI: > 100 µM
[38]
  TGI: > 100 µM
[39]
  TGI: > 100 µM
[40]
  TGI: > 100 µM
[41]
  TGI: > 100 µM
[42]
  TGI: > 100 µM
[43]
  TGI: > 100 µM
[44]
  TGI: > 100 µM
[45]
  TGI: > 100 µM
[46]
  TGI: > 100 µM
[47]
  TGI: > 100 µM
[48]
  TGI: > 100 µM
[49]
  TGI: > 100 µM
[50]
  TGI: > 100 µM
[51]
  TGI: > 100 µM
[52]
  TGI: > 100 µM
[53]
  TGI: > 100 µM
[54]
  TGI: > 100 µM
[55]
  TGI: > 100 µM
[56]
  TGI: > 100 µM

## C/C=C/C=N/N(C(=O)c1cc([N+](=O)[O-])cc([N+](=O)[O-])c1)C1=NC(c2ccccc2)C(c2ccccc2)=NN1 (stereo not drawn)
[1]
  TGI: > 100 µM
[2]
  TGI: 84.8 µM
[3]
  TGI: > 100 µM
[4]
  TGI: 62.2 µM
[5]
  TGI: 46.2 µM
[6]
  TGI: > 100 µM
[7]
  TGI: 81.8 µM
[8]
  TGI: > 100 µM
[9]
  TGI: > 100 µM
[57]
  TGI: > 100 µM
[10]
  TGI: > 100 µM
[11]
  TGI: 77.9 µM
[13]
  TGI: 57 µM
[14]
  TGI: > 100 µM
[15]
  TGI: > 100 µM
[16]
  TGI: > 100 µM
[17]
  TGI: 72 µM
[18]
  TGI: > 100 µM
[19]
  TGI: > 100 µM
[58]
  TGI: > 100 µM
[20]
  TGI: > 100 µM
[21]
  TGI: > 100 µM
[22]
  TGI: > 100 µM
[23]
  TGI: > 100 µM
[24]
  TGI: 70.8 µM
[25]
  TGI: > 100 µM
[26]
  TGI: > 100 µM
[28]
  TGI: > 100 µM
[29]
  TGI: > 100 µM
[30]
  TGI: > 100 µM
[31]
  TGI: > 100 µM
[32]
  TGI: > 100 µM
[59]
  TGI: > 100 µM
[33]
  TGI: > 100 µM
[34]
  TGI: > 100 µM
[35]
  TGI: > 100 µM
[36]
  TGI: > 100 µM
[37]
  TGI: > 100 µM
[38]
  TGI: 93.9 µM
[39]
  TGI: 75.2 µM
[40]
  TGI: > 100 µM
[41]
  TGI: > 100 µM
[42]
  TGI: > 100 µM
[43]
  TGI: > 100 µM
[44]
  TGI: > 100 µM
[45]
  TGI: > 100 µM
[46]
  TGI: > 100 µM
[47]
  TGI: > 100 µM
[48]
  TGI: 55.6 µM
[49]
  TGI: 75 µM
[50]
  TGI: > 100 µM
[51]
  TGI: > 100 µM
[52]
  TGI: 48.4 µM
[53]
  TGI: > 100 µM
[54]
  TGI: > 100 µM
[55]
  TGI: > 100 µM
[56]
  TGI: > 100 µM
